Source: US20060079453A1, “Hla binding peptides and their uses” (priority 2002, published 2006)

What was measured:
Test in all cases: biochemical
Assay type in all cases: binding
HLA-DR DRB1*0101 (DR1) = HLA-DR DRB1*0101 (DR1) (Homo sapiens, UniProt P01903+P01911, A100R/D57E/F55L/F60I/F76Y/I96L/L162R/M171V/P40L/Q125E/R42F/V115G/Y59C); details: DRB1 *0101
HLA-DR DRB1*0301 (DR3) = HLA-DR DRB1*0301 (DR3) (Homo sapiens, UniProt P01903+P01911, A100K/A102G/A103R/A169T/F55Y/I96L/K41T/L162R/M171V/P40S/Q125H/Q178H/Q39Y/R42S/S66N/T106N/T262R/W38E/Y61H)
Sequence of HLA-DR DRB1*0301 (DR3) (P01903 26-254 limits assumed, other chains not shown): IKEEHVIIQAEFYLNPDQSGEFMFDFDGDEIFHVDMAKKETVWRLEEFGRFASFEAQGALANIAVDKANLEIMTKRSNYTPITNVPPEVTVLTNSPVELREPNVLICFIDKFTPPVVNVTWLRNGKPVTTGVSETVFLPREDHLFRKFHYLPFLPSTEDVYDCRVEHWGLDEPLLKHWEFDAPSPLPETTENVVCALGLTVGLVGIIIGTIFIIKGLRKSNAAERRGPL

HLA-DR DRB1*0401 (DR4) = HLA-DR DRB1*0401 (DR4) (Homo sapiens, UniProt P01903+P01911, A100K/A169T/F76Y/I96L/K127E/L162R/M171V/N62H/P40V/Q125Y/R42H/S133A/S149N/S66Y/V115G/V209L/W38E); details: DRB1 *0401
HLA-DR DRB1*0701 (DR7) = HLA-DR DRB1*0701 (DR7) (Homo sapiens, UniProt P01903+P01911, A100R/A102G/A103Q/D57E/D86V/E43K/F76Y/K127E/L162R/M171V/P40G/Q125H/Q99D/R33Q/R42Y/R54Q/S133A/S66F/T210M/V115G/Y107V/Y59L/Y89S); details: DRB1 *0701
HLA-DR DRB1*0802 (DR8) = HLA-DR DRB1*0802 (DR8) (Homo sapiens, UniProt P01903+P01911, A100R/A103L/A169T/F76Y/H45Y/I96F/K41T/L162R/M171V/P40S/Q125H/Q178H/Q39Y/Q99D/R218S/R42G/S66Y/V115G/W38E)
HLA-DR DRB1*0901 (DR9) = HLA-DR DRB1*0901 (DR9) (Homo sapiens, UniProt P01903+P01911, A100R/A103E/D57H/D86V/F55Y/F60I/F76Y/I96F/K127E/L162R/M171V/P40D/Q125H/Q99R/R33Q/R42F/S133A/S66N/T210M/V115G/W38K/Y107V/Y59G/Y89S); details: DRB1 *0901
HLA-DR DRB1*1101 (DR11) = HLA-DR DRB1*1101 (DR11) (Homo sapiens, UniProt P01903+P01911, A100R/A169T/A87E/I96F/K41T/L162R/M171V/P40S/Q125H/Q178H/Q39Y/Q99D/R42S/S66Y/T262R/V115G/W38E); details: DRB1 *1101
Sequence of HLA-DR DRB1*1101 (DR11) (P01903 26-254 limits assumed, other chains not shown): as above

HLA-DR DRB1*1302 (DR13) = HLA-DR DRB1*1302 (DR13) (Homo sapiens, UniProt P01903+P01911, A100E/A169T/K41T/L162R/M171V/P40S/Q125H/Q178H/Q39Y/Q99D/R42S/S66N/T262R/V115G/W38E/Y61H); details: DRBI *1302
Sequence of HLA-DR DRB1*1302 (DR13) (P01903 26-254 limits assumed, other chains not shown): as above

HLA-DR DRB1*1501 (DR15) = HLA-DR DRB1*1501 (DR15) (Homo sapiens, UniProt P01903+P01911); details: DRBI *1501
HLA-DR DRB3*0101 (DR52) = HLA-DR DRB3*0101 (DR52) (Homo sapiens, UniProt P01903+P79483)
HLA-DR DRB5*0101 (DR51) = HLA-DR DRB5*0101 (DR51) (Homo sapiens, UniProt P01903+Q30154); details: DRB5 *0101
HLA-DR DRB4*0101 (DR53) = HLA-DR DRB4*0101 (DR53) (Homo sapiens, UniProt P01903+P13762, G164S); details: DRB4 *0101

Structure (SMILES) | IC50 (HLA-DR DRB1*0101 (DR1)) | IC50 (HLA-DR DRB1*0301 (DR3)) | IC50 (HLA-DR DRB1*0401 (DR4)) | IC50 (HLA-DR DRB1*0701 (DR7)) | IC50 (HLA-DR DRB1*0802 (DR8)) | IC50 (HLA-DR DRB1*0901 (DR9)) | IC50 (HLA-DR DRB1*1101 (DR11)) | IC50 (HLA-DR DRB1*1302 (DR13)) | IC50 (HLA-DR DRB1*1501 (DR15)) | IC50 (HLA-DR DRB3*0101 (DR52)) | IC50 (HLA-DR DRB5*0101 (DR51)) | IC50 (HLA-DR DRB4*0101 (DR53))
CSCC[C@H](NC(=O)CNC(=O)CNC(=O)[C@H](CCCNC(=N)N)NC(=O)[C@@H](NC(=O)[C@H](CCC(N)=O)NC(=O)[C@H](C)NC(=O)[C@@H](NC(=O)[C@@H](NC(=O)[C@H](CC(C)C)NC(=O)[C@H](Cc1c[nH]cn1)NC(=O)[C@H](Cc1ccc(O)cc1)NC(=O)[C@@H](N)CCCCN)[C@@H](C)O)C(C)C)C(C)C)C(=O)N[C@H](C(=O)N[C@@H](Cc1ccccc1)C(=O)O)C(C)C | 137 nM | 33700 nM | 806 nM | 228 nM | 1520 nM | 5860 nM | 859 nM | 193 nM | 1220 nM | > 21900 nM | 86 nM | –
CC[C@H](C)[C@H](NC(=O)[C@@H](NC(=O)[C@H](Cc1c[nH]cn1)NC(=O)[C@@H](N)CC(C)C)C(C)C)C(=O)N[C@@H](CO)C(=O)N[C@@H](CC(N)=O)C(=O)N[C@@H](CC(=O)O)C(=O)N[C@H](C(=O)N[C@@H](CS)C(=O)N[C@@H](C)C(=O)N[C@@H](CCC(N)=O)C(=O)N[C@H](C(=O)N[C@@H](Cc1c[nH]cn1)C(=O)N1CCC[C@H]1C(=O)N[C@@H](CCC(N)=O)C(=O)O)C(C)C)C(C)C | 789 nM | 8320 nM | 790 nM | 17500 nM | > 123000 nM | 32700 nM | > 50000 nM | – | 22800 nM | 1890 nM | > 200000 nM | 1090 nM
CSCC[C@H](NC(=O)[C@H](CC(C)C)NC(=O)[C@@H]1CCCN1C(=O)[C@@H](NC(=O)[C@H](CS)NC(=O)[C@H](CC(=O)O)NC(=O)[C@@H](NC(=O)[C@H](CCCNC(=N)N)NC(=O)[C@H](CC(C)C)NC(=O)[C@@H](NC(=O)[C@H](Cc1ccc(O)cc1)NC(=O)[C@@H](N)CC(N)=O)[C@@H](C)O)C(C)C)[C@@H](C)O)C(=O)N[C@@H](Cc1ccc(O)cc1)C(=O)N[C@@H](CO)C(=O)N[C@@H](CC(C)C)C(=O)O | 6800 nM | 45 nM | 9.9 nM | 24600 nM | 6320 nM | 48400 nM | 7120 nM | 9 nM | 5060 nM | 25 nM | 66700 nM | –
CC[C@H](C)[C@H](NC(=O)[C@@H]1CCCN1)C(=O)N[C@@H](CC(C)C)C(=O)N[C@@H](CC(C)C)C(=O)N[C@@H](Cc1c[nH]c2ccccc12)C(=O)N[C@@H](CCC(N)=O)C(=O)N1CCC[C@H]1C(=O)N[C@H](C(=O)N1CCC[C@H]1C(=O)N[C@H](C(=O)N[C@@H](Cc1c[nH]cn1)C(=O)N[C@H](C(=O)N[C@H](C(=O)N1CCC[C@H]1C(=O)N[C@@H](CC(C)C)C(=O)O)C(C)C)[C@@H](C)O)C(C)C)[C@@H](C)CC | 44 nM | > 81800 nM | 258 nM | 46 nM | 21200 nM | 168 nM | 4040 nM | 567 nM | 6.9 nM | > 8830 nM | 41500 nM | –
CC[C@H](C)[C@H](NC(=O)[C@H](Cc1c[nH]c2ccccc12)NC(=O)[C@@H](NC(=O)[C@@H](NC(=O)[C@H](CO)NC(=O)[C@H](CC(C)C)NC(=O)[C@@H](N)[C@@H](C)O)C(C)C)[C@@H](C)O)C(=O)NCC(=O)N[C@@H](C)C(=O)N[C@@H](C)C(=O)N1CCC[C@H]1C(=O)N[C@@H](CC(C)C)C(=O)N[C@H](C(=O)N[C@@H](CC(C)C)C(=O)N[C@@H](CO)C(=O)O)[C@@H](C)CC | 3.1 nM | > 81800 nM | – | 16 nM | 840 nM | 5.4 nM | 6860 nM | 642 nM | 97 nM | 6030 nM | 31 nM | –
CC[C@H](C)[C@H](NC(=O)[C@H](CCCNC(=N)N)NC(=O)[C@@H](N)[C@@H](C)O)C(=O)N[C@@H](Cc1ccc(O)cc1)C(=O)N[C@@H](CC(N)=O)C(=O)N[C@H](C(=O)N[C@H](C(=O)NCC(=O)N[C@H](C(=O)N[C@@H](CC(C)C)C(=O)N[C@@H](CCCNC(=N)N)C(=O)NCC(=O)N[C@@H](C)C(=O)N[C@H](C(=O)N[C@@H](CCC(=O)O)C(=O)O)C(C)C)[C@@H](C)O)[C@@H](C)CC)C(C)C | 14 nM | 33300 nM | 6.3 nM | 4810 nM | 70 nM | 2900 nM | 45 nM | 1460 nM | – | 17500 nM | 32 nM | 447 nM
CSCC[C@H](NC(=O)[C@H](CC(C)C)NC(=O)[C@H](CCC(N)=O)NC(=O)[C@H](CC(=O)O)NC(=O)[C@H](CC(N)=O)NC(=O)[C@H](CCSC)NC(=O)[C@H](CCSC)NC(=O)[C@H](CCCNC(=N)N)NC(=O)[C@H](CC(C)C)NC(=O)[C@@H](N)C(C)C)C(=O)N[C@@H](Cc1ccccc1)C(=O)N[C@@H](CC(C)C)C(=O)N[C@@H](CCC(=O)O)C(=O)N[C@@H](CCCNC(=N)N)C(=O)N[C@@H](C)C(=O)O | – | 183 nM | 29 nM | – | 1700 nM | 10700 nM | 2350 nM | 130 nM | 127 nM | 98 nM | 85 nM | 88 nM
